According to patent publication US20230085945A1, “ORTHOGONAL SAFETY SWITCHES TO ELIMINATE GENETICALLY ENGINEERED CELLS” (The Board of Trustees of the Leland Stanford Junior …, priority 2020, published 2023):

Experiments:
[1] = system: NANOG^iCasp9-YFP hPSCs transplanted subcutaneously (teratomas); experiment: In vivo teratoma formation after AP20 pre-treatment of hPSCs (bioluminescent imaging); design: species or system NOD-SCID Il2rg^−/− mice; conditions: 5×10^5 hPSCs pre-treated with 1 nM AP20 for 24 hours, subcutaneous transplantation
Procedure: FIG. 3: Implementation of the NANOG^iCasp9-YFP safety switch. A) Schema depicting how drug AP20187 induces dimerization of Caspase9 in undifferentiated NANOG^iCasp9-YFP hESCs, subsequently triggering cell death (top left). NANOG^iCasp9-YFP hESCs were treated for 24 hours with increasing concentrations of AP20187. AP20187 was withdrawn, and cultures were further grown in mTeSR1 to allow any surviving hESCs to grow; any surviving colonies were counted 1 week later (top right). Alkaline phosphatase staining of whole wells of a 12-well plate after 24-hour treatment with AP20187 (bottom). […] Bioluminescent imaging of mice occurred weekly for 5 weeks with no transplant control (NTC) animals included for relative luminescence normalization. Total flux (photons/sec) was measured for each animal and averaged. […] The percentage of surviving cells was calculated relative to untreated controls. […]
Given that very small numbers of hPSCs (10,000) are sufficient to form teratomas in vivo, we tested the lower bounds of this system to test whether any rare hPSCs survived drug treatment and whether they could form teratomas. […] We used bioluminescent imaging (using the AkaLuciferase system) to determine if micro-teratomas might form, rather than visual inspection of subcutaneous nodules, because bioluminescent imaging is more sensitive and quantitative. […]

[2] = system: NANOG mRNA and differentiation marker genes in NANOG^iCasp9-YFP hPSCs and differentiated cell-types; experiment: qPCR of NANOG and marker gene expression after AP20187; format: cell-based, human; conditions: for expression of differentiation markers in differentiated cell-types: AP20187 1 nM, 24 hours
Procedure: FIG. 9: Efficacy of the NANOG^iCasp9-YFP safety switch (related to FIG. 3). A) Undifferentiated NANOG^iCasp9-YFP hPSCs were treated with AP20187 at the indicated concentrations for 24 hours, and then the percentage of viable remaining cells was subsequently analyzed using FACS analysis (left) and alamar blue staining (right). For the FACS analysis, the percentage of cells shown represents viable cells (i.e., DAPI-negative cells obtained after DAPI staining) that were then gated for YFP+ (i.e., NANOG^+) cells. For the alamar blue analysis, wild-type hPSCs were used as a negative control. […] AP20187 doses equal to or greater than 100 nM may prevent efficient killing of NANOG^iCasp9-YFP hPSCs by considerably downregulating NANOG. Gene expression is depicted normalized to the reference gene YWHAZ (i.e., YWHAZ=1.0). C) Undifferentiated NANOG^iCasp9-YFP hPSCs were treated with the indicated doses of AP20187 for various lengths of time (6, 12, 24, 48, 72 hours) and then alamar blue assay was performed immediately thereafter to quantify the extent of cell death. […] D) Immunofluorescent imaging of NANOG^iCasp9-YFP hESCs in the undifferentiated state and after differentiation into day 6 sclerotome as marked by TWIST1 expression, both without and with treatment of cells with 1 nM AP20187 for 24 hours. […] The following marker genes were assessed in each respective cell-type: sclerotome (bone) progenitors (TWIST1, SOX9, PAX1, PAX9), liver progenitors (SOX17, HNF4A, AFP, TBX3), and forebrain (neural) progenitors (PAX6, FOXG1, OTX2, SIX3). F) Further validation of NANOG^iCasp9-YFP using a simulated mixed cell culture assay. NANOG^iCasp9-YFP undifferentiated hPSCs and hPSC-derived derived sclerotome cells were mixed at a 3:7 ratio, respectively. Mixed cells were treated with AP20187, and 24 hours post-treatment, FACS analysis was done to assess remaining NANOG^iCasp9-YFP hPSCs in culture.
RNA extraction, reverse transcription and quantitative PCR. Undifferentiated or differentiated hPSCs were lysed in […] of RLT Plus Buffer and RNA was extracted using the RNeasy Plus Mini Kit (Qiagen) according to the manufacturer's protocol. 300 ng of total RNA was reverse transcribed into cDNA for qPCR using the High-Capacity cDNA Reverse Transcription Kit (Applied Biosystems) according to the manufacturer's protocol. qPCR was performed in 384-well format as previously described (Loh et al., 2016) on a QuantStudio 5 qPCR machine (Thermo Fisher). Expression of all genes was first normalized to the levels of the reference gene YWHAZ, and then plotted relative to the levels of YWHAZ (i.e., 1.0=equivalent to YWHAZ). The following forward and reverse primer sequences were used to detect the expression of the respective genes: […]

`CC[C@H](C(=O)N1CCCC[C@H]1C(=O)O[C@H](CCc1ccc(OC)c(OC)c1)c1cccc(OCC(=O)NCC(CNC(=O)COc2cccc([C@@H](CCc3ccc(OC)c(OC)c3)OC(=O)[C@@H]3CCCCN3C(=O)[C@@H](CC)c3cc(OC)c(OC)c(OC)c3)c2)CN(C)C)c1)c1cc(OC)c(OC)c(OC)c1` [AP20] was tested, and the “mice that formed teratomas” value [1] was 0/14, the “expression of differentiation markers in differentiated cell-types” value [2] was “not substantially effected” and the “expression of differentiation markers in differentiated cell-types” value ([2]; listed as AP20187) was “did not substantially impact marker gene expression”. The “doses that may prevent efficient killing by considerably downregulating NANOG” value ([2]; NANOG^iCasp9-YFP hPSCs) was ≥ 100 nM and the “NANOG mRNA expression in undifferentiated hPSCs” value ([2]; increasing doses of AP20187) was “downregulated NANOG mRNA expression”.
